# Results taken from patent US20250257041A1, “INDUCERS OF INTEGRATED STRESS RESPONSE TO TREAT CANCER” (The Board of Regents of The University of Texas System, priority 2022, published 2025).
# Tested on: HCT116 WT
# Test: Proliferation of HCT116 colorectal cell line, Cell TiterGlo
# Format: cell-based, human
# Conditions: Homo sapiens, HCT-116, read-out: HCT116 IC50 (uM) HCT116 WT
# Method: Briefly, compounds were tested for their effect on proliferation of HCT116 colorectal cell lines using Cell TiterGlo (Promega). Each compound was tested in a 10-point dose response experiment in triplicate. Multiple values in the column titled HCT116 WT reflect separate independent experiments. The three columns titled “HCT116 WT (repeat)”, “HCT116-CGN2KO” and “HCT116 WT+ISRIB” provide data for selected compounds that were tested simultaneously under three conditions. The HCT116 WT column lists IC50 against the wild type HCT116 colorectal cancer cell line. The HCT116-CGN2KO lists IC50 data for cells in which one component of the integrated stress response, GCN2, has been knocked out using CRISPR technology.
row,SMILES,IC50 [µM]
1,"CSc1cccc(C(=O)Nc2cc(-c3ccc(NC(=O)c4ccccc4)cc3)nn2C)c1 [SW389160, N-(3-(4-Benzamidophenyl)-1-methyl-1H-pyrazol-5-yl)-3-(methylthio)benzamide]",0.226

# Same assay, conditions: Homo sapiens, HCT-116, read-out: HCT116 IC50 (uM) HCT116 WT (repeat)
row,SMILES,IC50 [µM]
1,"CSc1cccc(C(=O)Nc2cc(-c3ccc(NC(=O)c4ccccc4)cc3)nn2C)c1 [SW389160, N-(3-(4-Benzamidophenyl)-1-methyl-1H-pyrazol-5-yl)-3-(methylthio)benzamide]",0.29

# Same assay, conditions: Homo sapiens, HCT-116, wild type HCT116; 10-point dose response in triplicate; multiple values = separate independent experiments; read-out: HCT116 IC50 (uM) HCT116 WT
row,SMILES,IC50 [µM]
1,"Cn1nc(-c2ccc(NC(=O)C3CCCC3)cc2)cc1NC(=O)c1ccccc1 [SW394488, N-(3-(4-(Cyclopentanecarboxamido)phenyl)-1-methyl-1H-pyrazol-5-yl)benzamide]",0.32
2,"Cc1ncccc1C(=O)Nc1ccc(-c2cc(NC(=O)c3cccc(N(C)C)c3)n(C)n2)cc1 [SW394871, N-(4-(5-(3-(Dimethylamino)benzamido)-1-methyl-1H-pyrazol-3-yl)phenyl)-2-methylnicotine-amide]",0.01
3,"C#Cc1cccc(C(=O)Nc2cc(-c3ccc(NC(=O)c4ccccc4N=[N+]=[N-])cc3)nn2C)c1 [SW393185, 2-Azido-N-(4-(5-(3-ethynylbenzamido)-1-methyl-1H-pyrazol-3-yl)phenyl)benzamide]",0.13
4,"C#Cc1cccc(C(=O)Nc2cc(-c3ccc(NC(=O)c4ccccc4COCCNC(=O)CCC4(C)N=N4)cc3)nn2C)c1 [SW394741, N-(4-(5-(3-ethynylbenzamido)-1-methyl-1H-pyrazol-3-yl)phenyl)-2-((2-(3-(3-methyl-3H-diazirin-3-yl)propanamido)ethoxy)methyl)benzamide]",0.17
5,"Cn1nc(-c2ccc(NC(=O)c3ccccc3Cl)cc2)cc1NC(=O)c1cccc(OCCNC(=S)Nc2ccc(-c3c4ccc(=O)cc-4oc4cc(O)ccc34)c(C(=O)O)c2)c1 [SW394972, 5-(3-(2-(3-((3-(4-(2-chlorobenzamido)phenyl)-1-methyl-1H-pyrazol-5-yl)carbamoyl)phenoxy)ethyl)thioureido)-2-(6-hydroxy-3-oxo-3H-xanthen-9-yl)benzoic acid]",1.3
6,"Cn1nc(-c2ccc(NC(=O)c3ccccc3CN3CCOCC3)cc2)cc1NC(=O)c1ccccc1 [SW393298, N-(4-(5-Benzamido-1-methyl-1H-pyrazol-3-yl)phenyl)-2-(morpholinomethyl)benzamide]",0.15
7,"Cn1nc(-c2ccc(NC(=O)c3cccc(CN)c3Cl)cc2)cc1NC(=O)c1ccccc1Cl [SW394771, 3-(aminomethyl)-2-chloro-N-(4-(5-(2-chlorobenzamido)-1-methyl-1H-pyrazol-3-yl)phenyl)benzamide]",0.086
8,"Cn1nc(-c2ccc(NC(=O)c3ccccc3Cl)cc2)cc1NC(=O)c1cccc(CN)c1 [SW394966, N-(4-(5-(3-(aminomethyl)benzamido)-1-methyl-1H-pyrazol-3-yl)phenyl)-2-chlorobenzamide]",0.055
9,"COc1cccc(C(=O)Nc2cc(-c3ccc(NC(=O)OC(C)(C)C)cc3)nn2C)c1 [SW388712, tert-Butyl (4-(5-(3-methoxybenzamido)-1-methyl-1H-pyrazol-3-yl)phenyl)carbamate]",0.69
10,"Cn1nc(-c2ccc(NC(=O)c3ccccc3Cl)cc2Cl)cc1NC(=O)c1ccccc1 [SW393294, N-(4-(5-benzamido-1-methyl-1H-pyrazol-3-yl)-3-chlorophenyl)-2-chlorobenzamide]",0.28
11,"Cn1nc(-c2ccc(NC(=O)c3cccc(CN=[N+]=[N-])c3Cl)cc2)cc1NC(=O)c1ccccc1Cl [SW394763, 3-(azidomethyl)-2-chloro-N-(4-(5-(2-chlorobenzamido)-1-methyl-1H-pyrazol-3-yl)phenyl)benzamide]",0.02
12,"Cn1nc(-c2ccc(NC(=O)c3cccnc3C(F)(F)F)cc2)cc1NC(=O)c1ccccc1 [SW394603, N-(4-(5-Benzamido-1-methyl-1H-pyrazol-3-yl)phenyl)-2-(trifluoromethyl)nicotinamide]",0.02
13,"O=C(Nc1cc(-c2ccc(NC(=O)c3ccccc3Cl)cc2)nn1Cc1ccccc1)c1ccccc1 [SW393215, N-(4-(5-Benzamido-1-benzyl-1H-pyrazol-3-yl)phenyl)-2-chlorobenzamide]",0.62
14,Cn1nc(-c2ccc(CC(=O)c3ccccc3CCCNC(=O)CCCC[C@@H]3CC[C@]4(C)CCC[C@H]34)cc2)cc1CC(=O)c1ccccc1 [SW394657],0.044
15,"Cn1nc(C2CCC(NC(=O)c3ccccc3Cl)CC2)cc1NC(=O)c1ccccc1 (stereo not shown) [SW394444, N-(4-(5-benzamido-1-methyl-1H-pyrazol-3-yl)cyclohexyl)-2-chlorobenzamide]",> 50
16,"Cn1nc(-c2ccc(NC(=O)c3ccccc3Cl)cc2)cc1NC(=O)c1cccc(CCCNC(=O)CCCC[C@H]2SC[C@H]3NC(=O)N[C@H]32)c1 [SW394692, 2-chloro-N-(4-(1-methyl-5-(3-(3-(5-((3aR,4R,6aS)-2-oxohexahydro-1H-thieno[3,4-d]142 imidazole-4-yl)pentanamido)propyl)benzamido)-1H-pyrazol-3-yl)phenyl)benzamide]",0.5
17,"C#CCOc1cccc(C(=O)Nc2cc(-c3ccc(NC(=O)c4ccccc4N=[N+]=[N-])cc3)nn2C)c1 [SW393186, 2-Azido-N-(4-(1-methyl-5-(3-(prop-2-yn-1-yloxy)benzamido)-1H-pyrazol-3-yl)phenyl)benza-mide]",0.1
18,"Cn1nc(-c2ccc(NC(=O)c3ccccc3-c3cccnc3)cc2)cc1NC(=O)c1ccccc1 [SW394486, N-(4-(5-Benzamido-1-methyl-1H-pyrazol-3-yl)phenyl)-2-(pyridin-3-yl)benzamide]",0.025
19,"Cn1nc(-c2ccc(NC(=O)c3ccccc3Cl)cc2)cc1NC(=O)N1CCCCC1 [SW394874, N-(3-(4-(2-Chlorobenzamido)phenyl)-1-methyl-1H-pyrazol-5-yl)piperidine-1-carboxamide]",0.067
20,"O=C(Nc1cccc(-c2ccc(NC(=O)c3ccccc3Cl)cc2)c1)c1ccccc1 [SW394484, N-(3′-benzamido-[1,1′-biphenyl]-4-yl)-2-chlorobenzamide]",3.94
21,"Cc1ncccc1C(=O)Nc1ccc(-c2cc(NC(=O)C3CCOCC3)n(C)n2)cc1 [SW394746, 2-Methyl-N-(4-(1-methyl-5-(tetrahydro-2H-pyran-4-carboxamido)-1H-pyrazol-3-yl)phenyl)nicotinamide]",0.13
22,"Cn1nc(-c2ccc(NC(=O)C3CCCCC3)cc2)cc1NC(=O)c1ccccc1 [SW394442, N-(3-(4-(Cyclohexanecarboxamido)phenyl)-1-methyl-1H-pyrazol-5-yl)benzamide]",0.024
23,"Cn1nc(-c2ccc(NC(=O)c3ccccc3Cl)cc2)cc1NC(=O)C1CCCCCC1 [SW394599, N-(3-(4-(2-Chlorobenzamido)phenyl)-1-methyl-1H-pyrazol-5-yl)cycloheptanecarboxamide]",0.05
24,"Cn1nc(-c2ccc(NC(=O)c3ccccc3C3CCN(C(=O)OC(C)(C)C)CC3)cc2)cc1NC(=O)c1ccccc1 [SW394764, tert-butyl4-(2-((4-(5-benzamido-1-methyl-1H-pyrazol-3-yl)phenyl)carbamoyl)phenyl)piperidine-1-carboxylate]",0.3
25,"Cn1nc(-c2ccc(NC(=O)c3ccccc3Cl)cc2)cc1NC(=O)c1ccccc1F [SW393244, 2-chloro-N-(4-(5-(2-fluorobenzamido)-1-methyl-1H-pyrazol-3-yl)phenyl)benzamide]",~0.01
26,"Cc1ncccc1C(=O)Nc1ccc(-c2cc(NC(=O)c3ccccc3Cl)n(C)n2)cc1 [SW394630, N-(4-(5-(2-Chlorobenzamido)-1-methyl-1H-pyrazol-3-yl)phenyl)-2-methylnicotinamide]",0.014
27,"Cn1nc(-c2ccc(NC(=O)c3ccccc3Cl)cc2)cc1NC(=O)c1cccc(OCCN)c1 [SW394970, N-(4-(5-(3-(2-aminoethoxy)benzamido)-1-methyl-1H-pyrazol-3-yl)phenyl)-2-chlorobenzamide]",0.05
28,"Cc1ccncc1C(=O)Nc1ccc(-c2cc(NC(=O)c3ccccc3)n(C)n2)cc1 [SW394519, N-(4-(5-Benzamido-1-methyl-1H-pyrazol-3-yl)phenyl)-4-methylnicotinamide]",0.25
29,"Cn1nc(-c2ccc(NC(=O)c3ccccc3Cl)cc2)cc1NC(=O)c1ccccc1Br [SW393218, 2-bromo-N-(3-(4-(2-chlorobenzamido)phenyl)-1-methyl-1H-pyrazol-5-yl)benzamide]",0.02
30,"Cn1nc(-c2ccc(NC(=O)c3ccccc3Cl)cc2)cc1NC(=O)c1cccc(NS(C)(=O)=O)c1 [SW394895-1, 2-chloro-N-(4-(1-methyl-5-(3-(methylsulfonamido)benzamido)-1H-pyrazol-3-yl)phenyl)benzamide]",0.03

# Same assay, conditions: read-out: HCT116 IC50 (uM) HCT116 WT + ISRIB; wild type HCT116, compound plus 10 nM of ISRIB
row,SMILES,IC50 [µM]
1,"CSc1cccc(C(=O)Nc2cc(-c3ccc(NC(=O)c4ccccc4)cc3)nn2C)c1 [SW389160, N-(3-(4-Benzamidophenyl)-1-methyl-1H-pyrazol-5-yl)-3-(methylthio)benzamide]",2.48

# Same assay, conditions: wild type HCT116; 10-point dose response in triplicate; multiple values = separate independent experiments
row,SMILES,HCT116 IC50 (uM) HCT116 WT
1,"COc1cccc(C(=O)Nc2cc(-c3ccc(N)cc3)nn2C)c1 [SW388715, N-(3-(4-Aminophenyl)-1-methyl-1H-pyrazol-5-yl)-3-methoxybenzamide]",inactive
2,"Cn1nc(-c2ccc(NC(=O)c3ccccc3Cl)cc2)cc1NS(=O)(=O)c1ccccc1 [SW394768, 2-Chloro-N-(4-(1-methyl-5-(phenylsulfonamido)-1H-pyrazol-3-yl)phenyl)benzamide]",inactive

# Same assay, conditions: wild type HCT116; 10-point dose response in triplicate; multiple values = separate independent experiments; read-out: HCT116 IC50 (uM) HCT116 WT
row,SMILES,IC50 [µM]
1,"Cn1nc(-c2ccc(NC(=O)N3CCCCC3)cc2)cc1NC(=O)c1ccccc1 [SW394601, N-(4-(5-benzamido-1-methyl-1H-pyrazol-3-yl)phenyl)piperidine-1-carboxamide]",7.4
2,"Cn1nc(-c2ccc(NC(=O)N3CCCCC3)cc2)cc1NC(=O)c1ccccc1 [SW394891-1, N-(4-(5-benzamido-1-methyl-1H-pyrazol-3-yl)phenyl)piperidine-1-carboxamide]",0.24
